This note sets out measurements from patent publication US20240336571A1, “NOVEL CYCLOPROPYL COMPOUNDS” (ICAGEN, LLC, priority 2021, published 2024).

This experiment has as its target human Kv7.2 (Homo sapiens (Human), UniProt O43526). As to the kind of experiment: SyncroPatch 384 electrophysiology, activation of Kv7.2 in CHO cells. Type of experiment: cell-based. The note with it: for EC50: CHO cells stably expressing human Kv7.2, potassium current at -90 mV repolarizing step, in presence of zinc pyrithione; for Emax: CHO, Kv7.2 activation max %, relative to 30 μM ML-213 max activation. The procedure:
The potency of Kv7 potentiators was determined using the SyncroPatch 384 (Nanion) high throughput electrophysiology platform.
CHO cells stably expressing either human Kv7.2, Kv7.4 or Kv7.5/7.3 under a constitutive CMV promoter were used for these studies. Cells were maintained in F12 Hams+1 mM L-glutamine (Hyclone) supplemented with 10% FBS (Sigma), 0.3×NEAA (Non-essential Gamino-acids) and 400 ug/ml G418 at 37° C. in 5% CO2. Cells were cultured in T-225 flasks (Nunc) for 2-3 days to reach 85-95% confluence prior to electrophysiological recording.
Earle's balanced salt solution (in mM): 135 NaCl, 5.4 KCl, 5 Glucose, 2 CaCl2, 1 MgCl2, 5 HEPES, pH 7.4. Seal enhancer solution (in mM): 90 NaCl, 3 KCl, 35 CaCl2, 10 MgCl2, 10 HEPES, pH 7.4. Extracellular recording solution (in mM): 71 NaCl, 70 NMDG, 13 KCl, 5 Glucose, 2 CaCl2, 1 MgCl2, 10 HEPES, pH 7.4. Intracellular recording solution (in mM): 130 KF, 20 KCl, 4 EGTA, 10 HEPES, 2 EDTA, 0.01 Escin, pH 7.2.
Cells were harvested for electrophysiological recording upon reaching appropriate confluence. Cells were first washed in DPBS (Hyclone, Cat #SH30028.03) and then 2 ml of Accutase (MP Biomedicals #1000449) was added at 28° C. until ˜90% of cells were suspended. F12 HAM's media+1 mM L-glutamine (Hyclone, SH30026.02) was then added to the flask to dilute the accutase. Cells were then triturated until a single cell suspension was achieved, a cell count was performed, and cells were centrifuged for 2 min. at 1,000 rpm. Media was then aspirated, and cells were resuspended in Earle's balanced salt solution to a concentration of 0.75×10^6 cells/ml and allowed to recover for 25 min at 10° C.
At the beginning of each assay, 20 μl of cell suspension was dispensed into each well of a multi-hole 384-well SyncroPatch chip by the onboard pipettor. Cell sealing was initiated, and seal enhancer solution was added to facilitate seal formation. Upon completion of sealing, cells were washed 3 times with extracellular recording solution and the assay voltage protocol was started. Human Kv7.2, Kv7.4 or Kv7.5/7.3 channels were evaluated using a voltage protocol in which cells were voltage-clamped at a holding potential of −60 mV. Potassium currents were continuously activated with a series of three voltage steps to −30 mV for 3 seconds, 40 mV for 1 second and −90 mV for 4 seconds with 12 seconds between successive voltage sweeps. Potassium currents were measured from the −90 mV repolarizing step. Baseline current was assessed for 3.5 minutes prior to the addition of 5.6 μM zinc pyrithione (1 μM for Kv7.4). Kv7.2, Kv7.4 or Kv7.5/7.3 current in the presence of zinc pyrithione was acquired over five minutes to allow channels to reach steady state activity prior to addition of test agents. Channel activity was monitored for three minutes preceding the addition of 30 μM ML-213 (3 minutes) to achieve maximum activation. 150 mM TEA with 10 μM XE-991 was applied for 2 minutes to measure the leak current during maximum inhibition of Kv7.2, Kv7.4 or Kv7.5/7.3 channels.
Data were collected on the SyncroPatch platform using PatchControl software (Nanion) and processed and analyzed using DataControl Software (Nanion). Percent activation was calculated from potassium current as follows: The average current for the 5 sweeps in the presence of zinc pyrithione immediately preceding test agent addition was taken as the ‘control’ data. Likewise, the average potassium current in the presence of test agents 5 sweeps immediately preceding addition of 30 μM ML-213 was determined for ‘drug’ data. The average potassium current 5 sweeps immediately prior to addition of 150 mM TEA+10 μM XE-991 was determined for ‘max activation’ data while average currents from 5 sweeps immediately following addition of TEA was determined for ‘max inhibition’ data. Percent activation for each of the 384-wells of a sealchip was calculated as ((‘drug’−‘max inhibition’)/(‘max activation’−‘max inhibition’))*100 with Pipeline Pilot (Accelrys). […]
(Patch clamp records ionic current or voltage across a cell membrane.)

Usually EC50 stands for the concentration needed to bring the measured effect to its halfway point. In general, Emax refers to the size of the effect at its maximum, as opposed to the concentration needed. In the case of `COc1cc([C@H](C)NC(=O)N[C@@H]2C[C@H]2c2ccccc2)ccn1` [Example 29, 1-[(1S)-1-(2-methoxypyridin-4-yl)ethyl]-3-[(1R,2S)-2-phenylcyclopropyl]urea], the EC50 is 520 nM and the maximal response (Emax) is 47%.

In the case of `C[C@H](NC(=O)N[C@@H]1C[C@H]1c1ccccc1)c1ccnc(-n2cnc(C(F)(F)F)c2)c1` [Example 33, 1-[(1R,2S)-2-phenylcyclopropyl]-3-[(1S)-1-[2-[4-(trifluoromethyl)imidazol-1-yl]pyridin-4-yl]ethyl]urea], the EC50 was determined as 310 nM and the Emax worked out at 40%.

Consider `O=C(NCc1ccnc(OC2COC2)c1)N[C@@H]1C[C@H]1c1ccccc1` [Example 16], for which the EC50 was determined as 960 nM and the Emax is 57%.

For the compound `CC(C)c1nccc(CNC(=O)N[C@@H]2C[C@H]2C2CCCCC2)n1` (racemic) [Example 4, 1-[(2-propan-2-ylpyrimidin-4-yl)methyl]-3-[rac-(1R,2S)-2-cyclohexylcyclopropyl]urea], the EC50 is 4400 nM and the Emax came out at 71%.

For the compound `O=C(NCc1ccnc(C(F)(F)F)c1)N[C@@H]1C[C@H]1c1ccccc1` [Example 22, 1-[(1R,2S)-2-phenylcyclopropyl]-3-[[2-(trifluoromethyl)pyridin-4-yl]methyl]urea], the EC50 stood at 720 nM and the maximal response (Emax) worked out at 53%.

Turning to `COc1cc(CNC(=O)N[C@@H]2C[C@H]2c2ccccc2)ccn1` (racemic) [Example 5, 1-[(2-methoxypyridin-4-yl)methyl]-3-[rac-(1R,2S)-2-phenylcyclopropyl]urea], the EC50 was determined as 3750 nM and the Emax was found to be 44%.

On to `COC[C@@H](Oc1cc(CNC(=O)N[C@@H]2C[C@H]2C(F)(F)F)ccn1)C(F)(F)F` (mixture of isomers) [Example 53, 1-[[2-[(2R)-1,1,1-trifluoro-3-methoxypropan-2-yl]oxypyridin-4-yl]methyl]-3-[rac-(1R,2R)-2-(trifluoromethyl)cyclopropyl]urea], for which the EC50 stood at 360 nM and the Emax stood at 69%.

Regarding `O=C(NCc1ccnc(OC(F)F)n1)N[C@@H]1C[C@H]1C(F)(F)F` [Example 49, 1-[[2-(difluoromethoxy)pyrimidin-4-yl]methyl]-3-[(1R,2R)-2-(trifluoromethyl)cyclopropyl]urea], the EC50 was determined as 3830 nM and the Emax came out at 42%.

For the compound `O=C(NCc1ccnc(OC2CCC2)c1)N[C@@H]1C[C@H]1c1ccccc1` [Example 25, 1-[(2-cyclobutyloxypyridin-4-yl)methyl]-3-[(1R,2S)-2-phenylcyclopropyl]urea], the EC50 is 1050 nM and the Emax turned out to be 60%.

Take `O=C(NCc1ccnc(Oc2ccccc2)c1)N[C@@H]1C[C@H]1c1ccccc1` [Example 34, 1-[(2-phenoxypyridin-4-yl)methyl]-3-[(1R,2S)-2-phenylcyclopropyl]urea]: the EC50 was found to be 4780 nM and the Emax was 62%.

For the compound `O=C(NCc1ccnc(-n2cccn2)c1)N[C@@H]1C[C@H]1c1ccccc1` (racemic) [Example 12, 1-[(2-pyrazol-1-ylpyridin-4-yl)methyl]-3-[rac-(1R,2S)-2-phenylcyclopropyl]urea], the EC50 is 670 nM and the Emax came out at 69%.

`O=C(NCc1ccnc(OCF)c1)N[C@@H]1C[C@H]1c1ccccc1` [Example 37]: the EC50 amounted to 910 nM and the Emax worked out at 74%.

`O=C(NCc1ccnc(OC2CCOCC2)c1)N[C@@H]1C[C@H]1c1ccccc1` [Example 20, 1-[[2-(oxan-4-yloxy)pyridin-4-yl]methyl]-3-[(1R,2S)-2-phenylcyclopropyl]urea]: the EC50 worked out at 5930 nM and the Emax was 58%.

Consider `O=C(NCc1ccnc(-n2ccnc2)c1)N[C@@H]1C[C@H]1c1ccccc1` [Example 27, 1-[(2-imidazol-1-ylpyridin-4-yl)methyl]-3-[(1R,2S)-2-phenylcyclopropyl]urea], for which the EC50 was 2840 nM and the Emax is 45%.

For `O=C(NCc1ccnc(C(F)F)c1)N[C@@H]1C[C@H]1c1ccccc1` [Example 21, 1-[[2-(difluoromethyl)pyridin-4-yl]methyl]-3-[(1R,2S)-2-phenylcyclopropyl]urea], the 50% effective concentration (EC50) was determined as 3200 nM and the Emax came out at 72%.

Consider `O=C(NCc1ccnc(-c2cnsc2)c1)N[C@@H]1C[C@H]1C1CCCCC1` (racemic) [Example 40, 1-[rac-(1R,2S)-2-cyclohexylcyclopropyl]-3-[[2-(1,2-thiazol-4-yl)pyridin-4-yl]methyl]urea], for which the EC50 amounted to 780 nM and the maximal response (Emax) was found to be 57%.

On to `O=C(NCc1ccnc(OC(F)(F)F)c1)N[C@@H]1C[C@H]1c1ccccc1` [Example 28, 1-[(1R,2S)-2-phenylcyclopropyl]-3-[[2-(trifluoromethoxy)pyridin-4-yl]methyl]urea], for which the EC50 stood at 1360 nM and the Emax was found to be 62%.

Regarding `O=C(NCc1ccnc(-n2cccn2)c1)N[C@@H]1C[C@H]1c1ccccc1` [Example 13, 1-[(1R,2S)-2-phenylcyclopropyl]-3-[(2-pyrazol-1-ylpyridin-4-yl)methyl]urea], the EC50 stood at 1340 nM and the Emax stood at 74%.

With `O=C(NCc1ccnc(-n2ccnc2)c1)NC1CC1C1CCCCC1` (centres unmarked) [Example 11, 1-(2-cyclohexylcyclopropyl)-3-[(2-imidazol-1-ylpyridin-4-yl)methyl]urea], the EC50 was 2140 nM and the Emax came out at 52%.

As for `N#Cc1ccnc(CNC(=O)N[C@@H]2C[C@H]2c2ccccc2)c1` [Example 1, 1-[(4-cyanopyridin-2-yl)methyl]-3-[(1R,2S)-2-phenylcyclopropyl]urea], the EC50 stood at 4680 nM and the Emax came out at 73%.

On to `COc1cc(CNC(=O)N[C@@H]2C[C@H]2c2ccccc2)ccn1` [Example 9, 1-[(2-methoxypyridin-4-yl)methyl]-3-[(1R,2S)-2-phenylcyclopropyl]urea], for which the EC50 is 3410 nM and the Emax was found to be 78%.

For `N#Cc1cc(CNC(=O)N[C@@H]2C[C@H]2c2ccccc2)ccn1` [Example 10, 1-[(2-cyanopyridin-4-yl)methyl]-3-[(1R,2S)-2-phenylcyclopropyl]urea], the 50% effective concentration (EC50) was 1190 nM and the Emax came out at 43%.

Turning to `O=C(NCc1cc(OCC(F)(F)F)ncn1)N[C@@H]1C[C@H]1C(F)(F)F` (racemic) [Example 51, 1-[rac-(1R,2R)-2-(trifluoromethyl)cyclopropyl]-3-[[6-(2,2,2-trifluoroethoxy)pyrimidin-4-yl]methyl]urea], the EC50 came out at 280 nM and the Emax turned out to be 52%.

As to `O=C(NCc1ccnc(-n2cnc(C(F)(F)F)c2)c1)N[C@@H]1C[C@H]1C1CCCCC1` (racemic) [Example 24, 1-[rac-(1R,2S)-2-cyclohexylcyclopropyl]-3-[[2-[4-(trifluoromethyl)imidazol-1-yl]pyridin-4-yl]methyl]urea], the EC50 is 160 nM and the Emax worked out at 45%.

On to `C[C@@H]1C[C@H]1NC(=O)NCc1ccnc(OC(F)F)c1` (racemic) [Example 46, 1-[[2-(difluoromethoxy)pyridin-4-yl]methyl]-3-[rac-(1R,2R)-2-methylcyclopropyl]urea], for which the EC50 worked out at 900 nM and the Emax stood at 51%.
